Reference: patent US20250073292A1, “PELARGONIUM GRAVEOLENS EXTRACT FOR THE TREATMENT OF TRAUMATIC BRAIN INJURIES” (priority 2021, published 2025)

Assays:
acetyl choline esterase = acetyl choline esterase (Homo sapiens, UniProt P22303); details: WO 2013/168090 [10]; cited from earlier work
[1] = test system: mice subjected to closed head injury (CHI); test: Barnes maze (BM) acquisition, recall and exploration strategies after CHI; assay type: in vivo; details: 2 weeks after the trauma, 3 days after the last treatment; 125 mg/kg or 50 mg/kg (both doses), gavage, 9 treatments
Protocol: At 1 h after CHI, the NSS is evaluated.
• The BM test is based on the instinct of the mouse to hide when exposed to environmental disturbances and is used to test spatial learning and memory. The maze consists of an elevated circular platform with holes in the perimeter and a small dark hidden goal box. Bright light and aversive noise (85 dB) force the animals to escape from the open platform surface to find the hole under which the dark chamber (21×22×21 cm), “target goal box,” is located. Visual cues of different colors and shapes are placed around the room. The mouse was placed under a cylindrical black start chamber at the center of the maze. […] For the probe trial, the latency to reaching the escape box first are recorded. • The Barnes maze test was performed: • 1) Between days 14-17 (2 weeks) plus a recall test on days 18 and 25 after injury, for a total round of 6. • 2) Between days 54-57 (2 months) plus a recall test on days 58 and 65 after injury for a total round of 2. • 3) Between days 183-186 (6 months) plus a recall test on days 187 and 194 after injury for a total round of 2. • 4) Between days 277-280 (9 months) plus a recall test on days 281 and 288 after injury for a total round of 1. • The captured videos were analyzed with Ethovision XP10 software (Noldus, The Netherlands) for later evaluation of the strategies used to locate the target box. […]

Sequence of acetyl choline esterase (P22303 32-614): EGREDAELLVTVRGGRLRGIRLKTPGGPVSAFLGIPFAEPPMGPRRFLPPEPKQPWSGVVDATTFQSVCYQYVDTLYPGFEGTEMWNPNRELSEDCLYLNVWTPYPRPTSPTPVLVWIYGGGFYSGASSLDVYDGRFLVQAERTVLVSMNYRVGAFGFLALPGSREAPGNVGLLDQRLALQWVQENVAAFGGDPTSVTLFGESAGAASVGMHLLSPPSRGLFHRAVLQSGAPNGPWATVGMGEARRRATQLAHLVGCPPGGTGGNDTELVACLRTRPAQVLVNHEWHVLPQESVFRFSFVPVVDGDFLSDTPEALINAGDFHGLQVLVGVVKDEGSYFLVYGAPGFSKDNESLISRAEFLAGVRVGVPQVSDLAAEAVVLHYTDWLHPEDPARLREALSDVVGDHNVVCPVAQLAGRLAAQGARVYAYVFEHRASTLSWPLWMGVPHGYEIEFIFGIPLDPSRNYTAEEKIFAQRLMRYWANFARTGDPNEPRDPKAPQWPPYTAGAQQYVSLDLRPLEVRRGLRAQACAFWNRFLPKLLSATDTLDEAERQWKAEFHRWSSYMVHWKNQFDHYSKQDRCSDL

Structure (SMILES)	Activity of the enzyme acetyl choline esterase in vitro (acetyl choline esterase)	Barnes maze acquisition, learning curve [1]
CC(C)=CCC[C@H](C)CCO [(S) (−) citronellol]	inhibits	
CC(C)=CCCC(C)CCO (centres unmarked) [Citronellol, citronellol]		A significant improvement in the learning curve
